Measurements as given in article PMC7311950, “Potent Tetrahydroquinolone Eliminates Apicomplexan Parasites” (Frontiers in Cellular and Infection Microbiology, 2020).

Tests used:
[1] = system: Human Foreskin Fibroblast (HFF); test: Cytotoxicity assay, WST-1 cell proliferation reagent on HFF; assay type: cell-based; conditions: Homo sapiens, Fibroblast; supplement summary
Method: Toxicity assays used WST-1 cell proliferation reagent (Roche) as in Fomovska et al. ([2012a]). HFF were grown on a flat, clear-bottomed, black 96-well plate. Confluent HFF were treated with inhibitory compounds at concentrations of 10 and 50 μM. Compounds were diluted in IMDM-C, and 20 μL were added to each designated well, with triplicates for each condition. A gradient with 2-folddecreasing concentrations of DMSO from 10 to 0% in colorless, translucent IMDM-C was used as a control. The plate was incubated for 72 h at 37°C. Ten microlitre WST-1 reagent (Roche) were added to each well. Cells were incubated for 30–60 min. Absorbance was read using a fluorimeter at 420 nm. A higher degree of color change (and absorbance) indicated mitochondrial activity and cell viability.

CYP450 2C9 = CYP450 2C9 (Homo sapiens, UniProt P11712); test: CYP450 inhibition, 2C9; assay type: in vitro ADME
Chain of CYP450 2C9 (P11712 whole entry): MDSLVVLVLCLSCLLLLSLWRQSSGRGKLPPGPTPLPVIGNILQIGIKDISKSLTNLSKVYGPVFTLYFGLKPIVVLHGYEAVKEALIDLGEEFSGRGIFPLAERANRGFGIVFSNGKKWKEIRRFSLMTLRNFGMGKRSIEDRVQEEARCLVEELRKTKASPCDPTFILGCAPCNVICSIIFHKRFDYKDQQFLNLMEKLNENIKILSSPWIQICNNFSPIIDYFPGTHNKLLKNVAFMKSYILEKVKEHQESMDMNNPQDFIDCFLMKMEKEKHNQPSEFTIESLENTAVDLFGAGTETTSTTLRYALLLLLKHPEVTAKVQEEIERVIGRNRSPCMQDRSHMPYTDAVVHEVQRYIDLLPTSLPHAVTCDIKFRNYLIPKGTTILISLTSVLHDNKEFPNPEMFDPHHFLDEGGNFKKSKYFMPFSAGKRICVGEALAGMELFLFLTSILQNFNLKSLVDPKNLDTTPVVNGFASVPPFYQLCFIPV

[2] = system: P-glycoprotein (P-gp, MDR1); test: in vitro; conditions: dog, MDCK-MDR1
Method: (§1) The effects of changing R1 as 7-Et, 7-Me, 6-CF3, or 6-Me on activity against RH strain tachyzoites, kinetic solubility, and metabolic stability were compared. Kinetic solubility and metabolic stability in human or murine liver microsomes were measured. The hERG (human Ether-à-go-go-Related) liability was also determined. The hERG gene (KCNH2) encodes a protein Kv11.1, the alpha subunit of a potassium ion channel. This channel conducts the rapid component of the delayed rectifier potassium current, IKr, which is critical for repolarization of cardiac action potentials. A reduction in hERG currents from adverse drug effects can lead to long QT interval syndromes. These syndromes are characterized by action potential prolongation, lengthening of the QT interval on surface EKG, and an increased risk for “torsade de pointes” arrhythmias and sudden death. The MDCK-MDR1 Permeability Assay was also performed. MDCK-MDR1 refers to the ability of a compound to permeate across membranes of MDCK-MDR1 (Madin Darby canine kidney [MDCK] cells with the MDR1 gene [ABCB1], the gene encoding for the efflux protein, P-glycoprotein (P-gp)) in vitro. Assessing transport in both directions (apical to basolateral and basolateral to apical) across the cell monolayers enables an efflux ratio to be determined. […] This provides a prediction of blood brain barrier (BBB) penetration potential/permeability and efflux ratio. Effect in CACO-2 (Colon Adenocarcinoma cells) as a permeability assay and on cytochrome P450 (CYP 450) were also determined. CYP enzymes catalyze oxidative biotransformation (phase 1 metabolism) of most drugs. CYP enzymes, bind to membranes in a cell (cyto) and contain a heme pigment (chrome and P) that absorbs light at a wavelength of 450 nm when exposed to carbon monoxide. Metabolism of a drug by CYP enzymes is a major source of variability in drug effect. These were measured by Chem Partners. The relative effect on HFF and parasite enzymes also were compared.
(§2) In vitro absorption, distribution, metabolism, excretion, and toxicity (ADMET) analyses of the THQ compounds were outsourced to ChemPartner Shanghai Ltd. ELQ-271 (synthesized in-house) was tested as a comparison.

T. gondii RH tachyzoites = test: RH YFP challenge, oral nanoformulation of JAG21; assay type: in vivo, Toxoplasma gondii; conditions: for parasite burden reduced: peritoneal fluid 5 days later
Method: JAG21 was prepared using hydroxyethyl cellulose (HEC) and Tween 80. Briefly, this dispersant solution containing 5 mg/mL HEC and 2 mg/mL Tween 80 in water was prepared. Solid JAG21 was added to 20 mg/mL, and the dispersion was sonicated for 60 s using a Sonics vc50 probe-tip sonicator set to 20 kHz to homogenize. Sonication was performed at room temperature. Aliquots of the homogeneous dispersion were frozen and lyophilized using a VirTis AdVantage freeze drier. These aliquots were stored at room temperature for 5–6 months. Prior to dosing, aliquots were reconstituted using water. Controls containing no JAG21 were also prepared. Following reconstitution with water, the dispersion was imaged using a Nikon ECLIPSE E200 optical microscope set to 40x magnification. The average particle size of the JAG21 dispersion in HEC/Tween 80 was determined using an in-house image analysis program. This novel method to stably formulate JAG21 was discovered after all other studies were completed and this was the last experiment in this manuscript performed as a consequence.
For studies of the nano formulated JAG 21, this was administered for 1 or 3 days by gavage in the doses shown in the results section. These C57BL6 background mice received 2000 RH tachyzoites IP. on day the first day of the experiment and peritoneal fluid was collected 5 days later to quantitate fluorescence and numbers of parasites.

[3] = system: P-glycoprotein (P-gp, MDR1/ABCB1); test: in vitro; conditions: dog, MDCK-MDR1
Method: as §1, §2

Compound | IC50 [1] [µM] | IC50 (CYP450 2C9) [µM] | Papp [2] [×10⁻⁶ cm/s] | efflux ratio [2] | parasite burden reduced (T. gondii RH tachyzoites; single dose 10 mg/kg) | parasite burden reduced (T. gondii RH tachyzoites; single dose 20 mg/kg) | parasite burden (T. gondii RH tachyzoites; three doses of 10 mg/kg on first 3 days, fifth day) | Papp [3] [×10⁻⁶ cm/s] | efflux ratio [3]
Cc1[nH]c2c(c(=O)c1-c1ccc(Oc3ccc(OC(F)(F)F)cc3)cc1)CCCC2 [JAG21, 2-Methyl-3-(4-(4-(Trifluoromethoxy)Phenoxy)Phenyl)-5,6,7,8-Tetrahydroquinolin-4-One] | > 7.5 | 4 | > 10 | < 1.5 | ~ 60% | ~ 60% | markedly reduced |  | 
Cc1[nH]c2c(c(=O)c1-c1ccc(Oc3ccc(Cl)cc3)cc1)CCCC2 [JAG50] |  |  |  |  |  |  |  | > 10 | < 1.5
